US12479784B2, “Trisphenol derivative” (HONSHU CHEMICAL INDUSTRY CO., LTD., priority 2020, dated 2025)

How the values were obtained:
[1] = Evaluation Test 1: Solubility at 30° C. in ethyl lactate; assay type: physicochemical; details: for Solubility (g/100 g, 30° C.): in ethyl lactate, stirred 3 hours, HPLC quantification
Experimental: (4) Conditions of solubility measurement and analysis of comparative compounds (x) and (y)
<Evaluation Test 1: Solubility at 30° C.>
For compound (C1) and compound (C2) obtained in Examples and the following two compounds having six functional groups likewise and reported as crosslinking agents, the solubility at 30° C. in ethyl lactate widely used as a resist solvent was measured. The following compounds are referred to as “comparative compound (x)” and “comparative compound (y)”.
A cross-shaped stirrer and 10 g of ethyl lactate were added to a 100 ml test tube, and after 10 g of comparative compound (x) (or (y)) was added, a siphon was attached. Under nitrogen purge, the test tube was set in a pre-conditioned water bath at 30° C. and stirred with the stirrer for 3 hours. After the stirring for 3 hours, the internal solution was sampled with a pipette, and solids were filtered off from the sampled solution through a syringe filter to put a filtrate in a 50 ml measuring flask. This was diluted to the 50 ml mark with methanol for HPLC and analyzed with a high-performance liquid chromatography analyzer. From the results obtained, comparative compound (x) (or (y)) in the filtrate was quantified using the peak area of comparative compound (x) (or (y)), and the solubility (=quantitative value (mg) of comparative compound (x) or (y)/(weight (mg) of filtrate put in 50 ml measuring flask through syringe filter-quantitative value (mg) of comparative compound (x) or (y)) was calculated.
Method of constructing calibration curve: comparative compound (x) (or (y)) used in the test was analyzed by HPLC, and an approximate straight line obtained by plotting the peak area of comparative compound (x) (or (y) on the horizontal axis and the concentration (mg/50 ml) of comparative compound (x) (or (y)) on the vertical axis with “intercept=0” was used as a calibration curve of comparative compound (x) (or (y)).

[2] = Evaluation Test 2: Low-temperature storage stability (dissolution stability) of ethyl lactate solutions; assay type: physicochemical; design: key to Solution storage test 5° C. / Solution storage test −5° C.: ∘: Completely dissolved, and neither precipitation of crystals nor separation of oily components can be visually observed.; x: Precipitation of crystals or separation of oily components can be visually observed; details: for Solution storage test −5° C. / Solution storage test 5° C.: ethyl lactate solution; for Solution storage test −5° C.: freezer −5° C.; for Solution storage test −5° C. / Solution storage test 5° C. / Crystallization on storage, in words: 30 days; for Solution storage test 5° C.: refrigerator 5° C.; for Crystallization on storage, in words: ethyl lactate solutions, both at 5° C. and −5° C.
Experimental: <Evaluation Test 2: Low-Temperature Storage Stability (Dissolution Stability)>
In a 50 ml screw tube, 4.29 g of compound (C1), the inventive compound, and 5.71 g of ethyl lactate were placed and mixed, and the screw tube was put in a water bath set at 30° C. and stirred by shaking it by hand. Complete dissolution was visually observed, thus preparing an ethyl lactate solution with a compound (C1) concentration of 42.9 wt %.
In the same manner as for compound (C1), an ethyl lactate solution with a compound (C2) concentration of 40 wt %, an ethyl lactate solution with a compound (C2) concentration of 50 wt %, and an ethyl lactate solution with a compound (y) concentration of 40 wt % were prepared.
These solutions were subjected to solution storage tests in a refrigerator (5° C.) and a freezer (−5° C.) for 30 days.
∘: Completely dissolved, and neither precipitation of crystals nor separation of oily components can be visually observed.
x: Precipitation of crystals or separation of oily components can be visually observed.

Solubility (g/100 g, 30° C.) [1] [g/100 g] | Solution storage test −5° C. ([2]; concentration 40.0 wt %) | Solution storage test 5° C. ([2]; concentration 40.0 wt %) | Solution storage test −5° C. ([2]; concentration 50.0 wt %) | Solution storage test 5° C. ([2]; concentration 50.0 wt %) | Crystallization on storage, in words [2] | Solubility in ethyl lactate relative to comparative compound (x) ([1]; ethyl lactate) | Solubility in ethyl lactate relative to comparative compound (y) ([1]; ethyl lactate) | Solubility (g/100 g, 30° C.) ([1]; listed as compound (C2)) | Re-dissolution of precipitated crystals ([2]; test sample with precipitated crystals left at room temperature (22° C.) for one day) | SMILES
38.7 | – | – | – | – | – | – | – | – | – | COCc1cc(C(C)(C)c2ccc(C(C)(c3cc(COC)c(O)c(COC)c3)c3cc(COC)c(O)c(COC)c3)cc2)cc(COC)c1O [Comparative compound (x), reference compound]
> 100 | ∘ | ∘ | ∘ | ∘ | did not crystallize at all | more than twice higher | more soluble | more than 100.0 g/100 g | – | COCc1cc(CCC(C)(c2cc(COC)c(O)c(C3CCCCC3)c2)c2cc(COC)c(O)c(C3CCCCC3)c2)cc(COC)c1O [Compound (C2)]
84.0 | x | x | – | – | experienced crystal precipitation | – | – | – | did not dissolve again | COCc1cc(C(C)(c2cc(COC)c(O)c(COC)c2)c2cc(COC)c(O)c(COC)c2)cc(COC)c1O [(y), reference compound]
